From US6410598B1, “Compositions and methods for advanced glycosylation endproduct-mediated modulation of amyloidosis” (priority 1994, dated 2002)

Legend:
[1] = target: fibrillar β-amyloid peptide (Homo sapiens, UniProt P05067); assay: Co-precipitation with aggregated β-amyloid peptide (supernatant absorbance spectrum after centrifugation); assay type: binding
Method: A preparation of Compound 8, supra, was employed in this assay. Soluble β-amyloid peptide was allowed to aggregate in the presence of phosphate buffer, Compound 8 or dithionitrobenzene and various compounds as described in Example 1, supra. The samples containing dithionitrobenzene are controls for non-specific association of a chromophoric small molecule with precipitated β-amyloid peptide. An additional control sample was prepared containing phosphate buffer and the various compounds, but lacking β-amyloid peptide. After overnight incubation, the tubes were centrifuged at 15,000×g for 30 minutes, half of the supernatant removed and added to a cuvette, and the absorbance spectrum of the supernatant from 200 to 600 nm obtained. In the absence of an association between compound 8 and aggregated sedimentable B-amyloid components of the aggregated assay incubation, compound 8, which has an absorbance maximum at about 350 nm, will remain in the supernatant and its presence and concentration can be readily determined. Alternatively, association of Compound 8 with the precipitated β-amyloid peptide would result in decreased absorbance at 350 nm. […] In the control tubes, no decrease in the absorbance is expected, since the compound should remain soluble.

soluble βAP = target: T1, soluble βAP (Homo sapiens, UniProt P05067); assay: Thioflavin-T fluorescence assay of βAP aggregation and seeding; assay type: biochemical; conditions: 400 μM βAP 1-28, 0.1 M sodium acetate pH 7.0; 100 mM glucose, 0.05 M aminoguanidine; FIG. 4
T1 construct: Soluble βAP (400 μM βAP 1-28), 0.1 M sodium acetate in 0.1 M phosphate buffer; purchased Bachem (Torrance, Calif.); host or cells: chemical synthesis
T1 sequence (P05067 672-699): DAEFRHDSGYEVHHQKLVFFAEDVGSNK
Method: Aggregation of soluble βAP 1-28 or 3AP 1-40 at different concentrations was initiated by addition of 0.1 M sodium acetate (NaOAc) at the indicated pH (between 4.7 and 7.5) and continued for the indicated times. Quantitative aggregate formation with sub-millimolar βAP concentrations was detected using the procedure of LeVine (1992, Protein Science 2:404-410). Briefly, fluorescence of aggregates added to 10 μM Thioflavin-T (Aldrich)/50 mM potassium phosphate buffer, pH 6.0, was measured upon excitation at 450±5 nm and detection of emission at 482±10 nm on a Perkin Elmer LS-50B spectrofluorimeter. Where indicated, small amounts of pre-formed aggregates or “nucleation seeds” were added to the soluble βAP and aggregation initiated with 0.1 M sodium acetate.
After incubation, protein concentrations of seed preparations were measured and adjusted with buffer to 150 μM final concentration.

Chain of fibrillar β-amyloid peptide (P05067 672-713 limits assumed): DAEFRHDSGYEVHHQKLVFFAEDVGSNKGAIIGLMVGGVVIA

effect on fluorescent aggregate formation of soluble βAP (soluble βAP) | SMILES | absorbance of the supernatant after pelleting of fibrillar β-amyloid peptide versus before pelleting ([1]; 350 nm for Compound 8, overnight incubation, 15,000×g for 30 minutes, FIG. 7) | association with insoluble aggregated β-amyloid peptide ([1]; co-sedimentation in vitro)
– | Cc1ccc2nc(-c3ccc(NCCCC[N+](C)(C)C[C@@]4(O)OC[C@@H](O)[C@@H](O)[C@@H]4O)cc3)sc2c1 [Compound 8, (4-[N-(4-[N-(1-deoxy-β-D-fructopyranos-1-yl)-N,N-dimethylammonio]butyl)amino]phenyl)-6-methylbenzothiazole chloride] | reduced | specifically associates with insoluble, aggregated β-amyloid peptide deposits
can inhibit the AGE-enhanced aggregation | N=C(N)NN [aminoguanidine] | – | –
